Measured values: article PMC5681922, “Systemic Responses of Multidrug-Resistant Pseudomonas aeruginosa and Acinetobacter baumannii Following Exposure to the Antimicrobial Peptide Cathelicidin-BF Imply Multiple Intracellular Targets” (Frontiers in Cellular and Infection Microbiology, 2017)
Like-named read-outs stand apart in the source and are kept apart here. No end group written: not given here.

What was measured:
[1] = tested on: 293FT (human embryonic kidney cells); conditions: XTT, 24 h, serum-free DMEM
Description: (§1) Cell viability was measured using cell proliferation kit II (XTT) (Roche). Cells, including A549 (adenocarcinomic human alveolar basal epithelial cells), 293FT (human embryonic kidney cells) and L929 (murine fibroblast cells), were cultured in Dulbecco's […] (DMEM) supplemented with 10% fetal bovine serum, 100 U penicillin/mL, and 100 μg streptomycin/mL in a humidified 5% CO2 atmosphere at 37°C. After digestion with trypsin, the cells were diluted in serum-free DMEM without phenol red to a final concentration of 2 × 10^5 cell/mL, seeded in 96 well plates (100 μl/well) and cultured overnight until adhesion. Cathelicidin-BF dissolved in serum-free DMEM without phenol red was added to wells, and the plates were incubated for 24 h as previously described. Subsequent procedures were performed according to the kit. Briefly, XTT labeling reagent (sodium 3′-[1-(phenylaminocarbonyl)-3,4-tetrazolium]-bis-4-methoxy-6-nitro) benzene sulfonic acid hydrate) in Roswell Park Memorial Institute (RPMI) 1640 medium without phenol red was mixed with electron-coupling reagent PMS (N-methyl dibenzopyrazine methyl sulfate) at a volume ratio of 50:1 to make the working solution. Fifty microliters of the XTT labeling mixture was added to each well and incubated at the same conditions for 6 h. Absorbance [A492 nm-A690 nm] stands for the quantification of viable cells.
(§2) Figure 2 Cytotoxicity of cathelicidin-BF. Hemolysis and cell viability assays were conducted to test the cytotoxicity of cathelicidin-BF to mammalian cells.

[2] = tested on: A549 (adenocarcinomic human alveolar basal epithelial cells); conditions: 400 mg/L; XTT, 24 h, serum-free DMEM
Description: as §1, §2

[3] = tested on: L929 (murine fibroblast cells); conditions: 400 mg/L; XTT, 24 h, serum-free DMEM
Description: as §1, §2

[4] = tested on: P. aeruginosa 1409; test: Membrane permeabilization assay (propidium iodide); type: cell-based, Pseudomonas aeruginosa; conditions: 1 h at 25°C in LB, then PI 10 μg/mL 30 min, fluorescence microscope
Description: Then, PI was added to a final concentration of 10 μg/mL. After 30 min of incubation at 25°C, the cells were washed 3 times with PBS and immediately imaged with a fluorescence microscope (Olympus, Japan) (Yu et al., [2015]).
Figure 3 Bacterial plasma membrane permeabilization assay of cathelicidin-BF. Cathelicidin-BF and levofloxacin were incubated with MDR P. aeruginosa in Luria-Bertani medium at final concentrations of 4 × MIC (minimal inhibitory concentration) or ¼ × MIC. After incubation at 25°C for 1 h, bacteria were collected by centrifugation at 3,000 × g for 5 min and resuspended with PBS. The DNA-binding fluorescent dye PI was added to a final concentration of 10 μg/mL. After 30 min incubation at 25°C, the cells were washed 3 times with PBS and immediately imaged using a fluorescence microscope.

[5] = tested on: P. aeruginosa 1409

KFFRKLKKSVKKRAKEFFKKPRVIGVSIPF [cathelicidin-BF]
concentrations at which proliferation of 293FT cells was inhibited [1]: > 50 µg/mL | effect on A549 cells [2]: intact | effect on L929 cells [3]: intact | integrity of bacterial membranes, PI staining at 4 × MIC ([4]; 4 × MIC (cathelicidin-BF 32 μg/mL, levofloxacin 64 μg/mL)): showed red fluorescence | integrity of bacterial membranes, PI staining at ¼ × MIC ([4]; ¼ × MIC (cathelicidin-BF 2 μg/mL, levofloxacin 4 μg/mL)): no red dyes were detected | Pa-Ca/Pa-C [5]: 0.8832 | Pa-Ca/Pa-C: 30S ribosomal protein S9, rpsI (Q9HVY3) [5]: 0.9749 | expression of protein Q9HVA1 (acetolactate synthase isozyme III small subunit) [5]: overexpressed | expression of protein Q9I3S7 (likely decarboxylase) [5]: downregulated | expression of protein Q9I523 (nucleoside-triphosphate diphosphatase) [5]: downregulated | Pa-Ca/Pa-C ([5]; iTRAQ abundance ratio Pa-Cathelicidin/Pa-Control of protein G3XCU7 (GN=PA2949)): 0.9896 | Pa-Ca/Pa-C ([5]; iTRAQ abundance ratio Pa-Cathelicidin/Pa-Control of protein G3XCU9 (GN=PA2020)): 0.9868 | Pa-Ca/Pa-C ([5]; iTRAQ abundance ratio Pa-Cathelicidin/Pa-Control of protein G3XCW2 (GN=PA2018)): 1.1346 | Pa-Ca/Pa-C ([5]; iTRAQ abundance ratio Pa-Cathelicidin/Pa-Control of protein G3XCX7 (GN=pilP)): 0.9395 | Pa-Ca/Pa-C ([5]; iTRAQ abundance ratio Pa-Cathelicidin/Pa-Control of protein G3XCZ4 (GN=PA0891)): 1.209 | Pa-Ca/Pa-C ([5]; iTRAQ abundance ratio Pa-Cathelicidin/Pa-Control of protein G3XD66 (GN=narX)): 0.9046 | Pa-Ca/Pa-C ([5]; iTRAQ abundance ratio Pa-Cathelicidin/Pa-Control of protein G3XD98 (GN=gacS)): 1.089 | Pa-Ca/Pa-C ([5]; iTRAQ abundance ratio Pa-Cathelicidin/Pa-Control of protein G3XDA4 (GN=PA0653)): 1.044 | Pa-Ca/Pa-C ([5]; iTRAQ abundance ratio Pa-Cathelicidin/Pa-Control of protein O50273 (GN=cysD)): 0.9324 | Pa-Ca/Pa-C ([5]; iTRAQ abundance ratio Pa-Cathelicidin/Pa-Control of protein O68561 (GN=PA4766)): 1.042 | Pa-Ca/Pa-C ([5]; iTRAQ abundance ratio Pa-Cathelicidin/Pa-Control of protein P23747 (GN=algB)): 1.041 | Pa-Ca/Pa-C ([5]; iTRAQ abundance ratio Pa-Cathelicidin/Pa-Control of protein Q9HT06 (GN=yidC)): 1.13 | Pa-Ca/Pa-C ([5]; iTRAQ abundance ratio Pa-Cathelicidin/Pa-Control of protein Q9HT09 (GN=mnmG)): 1.075 | Pa-Ca/Pa-C ([5]; iTRAQ abundance ratio Pa-Cathelicidin/Pa-Control of protein Q9HTC2 (GN=PA5445)): 1.07 | Pa-Ca/Pa-C ([5]; iTRAQ abundance ratio Pa-Cathelicidin/Pa-Control of protein Q9HTG5 (GN=dgcB)): 1.053 | Pa-Ca/Pa-C ([5]; iTRAQ abundance ratio Pa-Cathelicidin/Pa-Control of protein Q9HTH5 (GN=cdhR)): 1.224 | Pa-Ca/Pa-C ([5]; iTRAQ abundance ratio Pa-Cathelicidin/Pa-Control of protein Q9HTJ5 (GN=pstA)): 0.8996 | Pa-Ca/Pa-C ([5]; iTRAQ abundance ratio Pa-Cathelicidin/Pa-Control of protein Q9HTL3 (GN=recG)): 1.182 | Pa-Ca/Pa-C ([5]; iTRAQ abundance ratio Pa-Cathelicidin/Pa-Control of protein Q9HTM0 (GN=spoT)): 1.095 | Pa-Ca/Pa-C ([5]; iTRAQ abundance ratio Pa-Cathelicidin/Pa-Control of protein Q9HTN3 (GN=dut)): 1.23 | Pa-Ca/Pa-C ([5]; iTRAQ abundance ratio Pa-Cathelicidin/Pa-Control of protein Q9HTQ6 (GN=xpt)): 1.069 | Pa-Ca/Pa-C ([5]; iTRAQ abundance ratio Pa-Cathelicidin/Pa-Control of protein Q9HTY4 (GN=argE)): 1.064 | Pa-Ca/Pa-C ([5]; iTRAQ abundance ratio Pa-Cathelicidin/Pa-Control of protein Q9HU23 (GN=rmlD)): 0.9526 | Pa-Ca/Pa-C ([5]; iTRAQ abundance ratio Pa-Cathelicidin/Pa-Control of protein Q9HU51 (GN=PA5133)): 0.8597 | Pa-Ca/Pa-C ([5]; iTRAQ abundance ratio Pa-Cathelicidin/Pa-Control of protein Q9HUB1 (GN=PA5072)): 1.129 | Pa-Ca/Pa-C ([5]; iTRAQ abundance ratio Pa-Cathelicidin/Pa-Control of protein Q9HUL5 (GN=PA4949)): 0.9992 | Pa-Ca/Pa-C ([5]; iTRAQ abundance ratio Pa-Cathelicidin/Pa-Control of protein Q9HUN4 (GN=alr)): 0.8997 | Pa-Ca/Pa-C ([5]; iTRAQ abundance ratio Pa-Cathelicidin/Pa-Control of protein Q9HUS6 (GN=PA4887)): 0.9498 | Pa-Ca/Pa-C ([5]; iTRAQ abundance ratio Pa-Cathelicidin/Pa-Control of protein Q9HUT5 (GN=PA4878)): 0.8866 | Pa-Ca/Pa-C ([5]; iTRAQ abundance ratio Pa-Cathelicidin/Pa-Control of protein Q9HVA1 (GN=ilvH)): 1.442 | Pa-Ca/Pa-C ([5]; iTRAQ abundance ratio Pa-Cathelicidin/Pa-Control of protein Q9HVI2 (GN=PA4607)): 1.1056 | Pa-Ca/Pa-C ([5]; iTRAQ abundance ratio Pa-Cathelicidin/Pa-Control of protein Q9HVI3 (GN=PA4606)): 1.1297 | Pa-Ca/Pa-C ([5]; iTRAQ abundance ratio Pa-Cathelicidin/Pa-Control of protein Q9HVP4 (GN=PA4533)): 1.032 | Pa-Ca/Pa-C ([5]; iTRAQ abundance ratio Pa-Cathelicidin/Pa-Control of protein Q9HVQ9 (GN=lpxO1)): 0.3833 | Pa-Ca/Pa-C ([5]; iTRAQ abundance ratio Pa-Cathelicidin/Pa-Control of protein Q9HVV6 (GN=PA4461)): 0.9096 | Pa-Ca/Pa-C ([5]; iTRAQ abundance ratio Pa-Cathelicidin/Pa-Control of protein Q9HW10 (GN=PA4396)): 0.9909 | Pa-Ca/Pa-C ([5]; iTRAQ abundance ratio Pa-Cathelicidin/Pa-Control of protein Q9HW40 (GN=PA4361)): 1.028 | Pa-Ca/Pa-C ([5]; iTRAQ abundance ratio Pa-Cathelicidin/Pa-Control of protein Q9HW52 (GN=PA4349)): 1.052 | Pa-Ca/Pa-C ([5]; iTRAQ abundance ratio Pa-Cathelicidin/Pa-Control of protein Q9HW85 (GN=sbcB)): 0.9833 | Pa-Ca/Pa-C ([5]; iTRAQ abundance ratio Pa-Cathelicidin/Pa-Control of protein Q9HWG9 (GN=phzS)): 0.9442 | Pa-Ca/Pa-C ([5]; iTRAQ abundance ratio Pa-Cathelicidin/Pa-Control of protein Q9HX06 (GN=PA4021)): 1.123 | Pa-Ca/Pa-C ([5]; iTRAQ abundance ratio Pa-Cathelicidin/Pa-Control of protein Q9HX89 (GN=PA3924)): 0.8403 | Pa-Ca/Pa-C ([5]; iTRAQ abundance ratio Pa-Cathelicidin/Pa-Control of protein Q9HXF4 (GN=PA3852)): 1.051 | Pa-Ca/Pa-C ([5]; iTRAQ abundance ratio Pa-Cathelicidin/Pa-Control of protein Q9HXG8 (GN=PA3836)): 1.058 | Pa-Ca/Pa-C ([5]; iTRAQ abundance ratio Pa-Cathelicidin/Pa-Control of protein Q9HXL6 (GN=PA3779)): 0.9473 | Pa-Ca/Pa-C ([5]; iTRAQ abundance ratio Pa-Cathelicidin/Pa-Control of protein Q9HXT9 (GN=wspR)): 1.096
